# Experimental data: patent US6548052B2, “Antibacterial deodorizing compositions” (Innoscent Ltd., priority 1997, dated 2003)
# How the values were obtained:
# [1] = tested on: C. xerosis; assay: Inhibition test: samples applied onto bacterial lawns, growth inhibition zone; format: cell-based, Corynebacterium xerosis
# Protocol: (§1) The Extraction Process: […] The mixture was vortexed for 10 min and the samples were centrifuged for 30 min at 10000 rpm. The supernatant was collected and referred to as the extract. The extract was then filtered through a 0.22 or a 0.45 μm filter. Inhibition Test: The antimicrobial activity of the various extracts was examined by applying samples (5 μl) onto lawns of axillary bacteria. Following incubation of 24 hours at 37° C., inhibition was determined by measuring the diameter of the growth inhibition zone (in cm). In the tables, “+” indicates full growth inhibition(transparent zone), “−” indicates lack of inhibition, and “+/−” indicates partial inhibition (translucent zone). For the purposes of comparative testing, 5 μl aliquots of either red or black henna extracts (20% w/v in 20% v/v ethanol) are applied to the bacterial lawns.
# [2] = tested on: S. epidermidis; assay: as above; format: cell-based; settings: for inhibition of S. epidermidis (in words): solvents in water, Table III
# Protocol: as §1
# [3] = tested on: Streptococcus aureus; settings: Handbook of Medicinal Herbs; cited from earlier work
# [4] = tested on: oral species; settings: Didry et al. 1994; cited from earlier work
smiles,measurement,setting,value
O=C(O)c1cc(O)c(O)c(O)c1 [gallic acid],Inhibition of C. xerosis,[1]; 0.2% in ethanol 20%,−
same,Inhibition of C. xerosis,[1]; 0.4% in ethanol 20%,−
same,Inhibition of S. epidermidis,[2]; 0.2% in ethanol 20%,−
same,Inhibition of S. epidermidis,[2]; 0.4% in ethanol 20%,+/−
same,inhibition of “Streptococcus aureus”,[3],slightly
O=C1C=C(O)C(=O)c2ccccc21 [lawsone],Inhibition of C. xerosis,[1]; 0.01% in ethanol 20%,−
same,Inhibition of C. xerosis,[1]; 0.02% in ethanol 20%,−
same,Inhibition of C. xerosis,[1]; 0.2% in ethanol 20%,−
same,Inhibition of C. xerosis,[1]; 1.0% in ethanol 50%,−
same,Inhibition of C. xerosis,[1]; 1.0% in ethanol 100%,−
same,Inhibition of C. xerosis,[1]; 1.0% in hot water,−
same,Inhibition of S. epidermidis,[2]; 0.01% in ethanol 20%,−
same,Inhibition of S. epidermidis,[2]; 0.02% in ethanol 20%,−
same,Inhibition of S. epidermidis,[2]; 0.2% in ethanol 20%,−
same,Inhibition of S. epidermidis,[2]; 1.0% in ethanol 50%,−
same,Inhibition of S. epidermidis,[2]; 1.0% in ethanol 100%,−
same,Inhibition of S. epidermidis,[2]; 1.0% in hot water,−
same,antibacterial activity against oral species,[4],antibacterial activity
"CCO [ETHANOL, ethanol]",inhibition of C. xerosis (in words),[1]; above 40% (v/v) in water,some inhibition
same,Inhibition of C. xerosis,[1]; solvent content 5%,−
same,Inhibition of C. xerosis,[1]; solvent content 10%,−
same,Inhibition of C. xerosis,[1]; solvent content 15%,−
same,Inhibition of C. xerosis,[1]; solvent content 20%,−
same,Inhibition of C. xerosis,[1]; solvent content 25%,−
same,Inhibition of C. xerosis,[1]; solvent content 30%,−
same,Inhibition of C. xerosis,[1]; solvent content 35%,−
same,Inhibition of C. xerosis,[1]; solvent content 40%,+/−
same,"Inhibition of C. xerosis, zone diameter",[1]; solvent content 40%,0.2 cm
same,Inhibition of C. xerosis,[1]; solvent content 45%,+/−
same,"Inhibition of C. xerosis, zone diameter",[1]; solvent content 45%,0.2 cm
same,Inhibition of C. xerosis,[1]; solvent content 50%,+/−
same,"Inhibition of C. xerosis, zone diameter",[1]; solvent content 50%,0.6 cm
same,Inhibition of C. xerosis,[1]; solvent content 55%,+/−
same,"Inhibition of C. xerosis, zone diameter",[1]; solvent content 55%,0.6 cm
same,Inhibition of C. xerosis,[1]; solvent content 60%,+/−
same,"Inhibition of C. xerosis, zone diameter",[1]; solvent content 60%,0.8 cm
same,Inhibition of C. xerosis,[1]; solvent content 65%,+/−
same,"Inhibition of C. xerosis, zone diameter",[1]; solvent content 65%,0.8 cm
same,Inhibition of C. xerosis,[1]; solvent content 70%,+/−
same,"Inhibition of C. xerosis, zone diameter",[1]; solvent content 70%,0.8 cm
same,Inhibition of C. xerosis,[1]; solvent content 75%,+/−
same,"Inhibition of C. xerosis, zone diameter",[1]; solvent content 75%,0.8 cm
same,Inhibition of C. xerosis,[1]; solvent content 80%,+/−
same,"Inhibition of C. xerosis, zone diameter",[1]; solvent content 80%,0.8 cm
same,Inhibition of C. xerosis,[1]; solvent content 90%,+
same,"Inhibition of C. xerosis, zone diameter",[1]; solvent content 90%,1.1 cm
same,Inhibition of C. xerosis,[1]; solvent content 100%,+
same,"Inhibition of C. xerosis, zone diameter",[1]; solvent content 100%,1.3 cm
same,Inhibition of S. epidermidis,[2]; solvent content 5%,−
same,Inhibition of S. epidermidis,[2]; solvent content 10%,−
same,Inhibition of S. epidermidis,[2]; solvent content 15%,−
same,Inhibition of S. epidermidis,[2]; solvent content 20%,−
same,Inhibition of S. epidermidis,[2]; solvent content 25%,−
same,Inhibition of S. epidermidis,[2]; solvent content 30%,−
same,Inhibition of S. epidermidis,[2]; solvent content 35%,−
same,Inhibition of S. epidermidis,[2]; solvent content 40%,−
same,Inhibition of S. epidermidis,[2]; solvent content 45%,−
same,Inhibition of S. epidermidis,[2]; solvent content 50%,−
same,Inhibition of S. epidermidis,[2]; solvent content 55%,−
same,Inhibition of S. epidermidis,[2]; solvent content 60%,−
same,Inhibition of S. epidermidis,[2]; solvent content 65%,−
same,Inhibition of S. epidermidis,[2]; solvent content 70%,−
same,Inhibition of S. epidermidis,[2]; solvent content 75%,−
same,Inhibition of S. epidermidis,[2]; solvent content 80%,−
same,Inhibition of S. epidermidis,[2]; solvent content 90%,−
same,Inhibition of S. epidermidis,[2]; solvent content 100%,−
same,inhibition of S. epidermidis (in words),[2],no inhibition
"CO [METHANOL, methanol]",inhibition of C. xerosis (in words),[1]; above 45%,some inhibition
same,Inhibition of C. xerosis,[1]; solvent content 5%,−
same,Inhibition of C. xerosis,[1]; solvent content 10%,−
same,Inhibition of C. xerosis,[1]; solvent content 15%,−
same,Inhibition of C. xerosis,[1]; solvent content 20%,−
same,Inhibition of C. xerosis,[1]; solvent content 25%,−
same,Inhibition of C. xerosis,[1]; solvent content 30%,−
same,Inhibition of C. xerosis,[1]; solvent content 35%,−
same,Inhibition of C. xerosis,[1]; solvent content 40%,−
same,Inhibition of C. xerosis,[1]; solvent content 45%,+/−
same,Inhibition of C. xerosis,[1]; solvent content 50%,+/−
same,Inhibition of C. xerosis,[1]; solvent content 55%,+/−
same,Inhibition of C. xerosis,[1]; solvent content 60%,+/−
same,"Inhibition of C. xerosis, zone diameter",[1]; solvent content 60%,0.8 cm
same,Inhibition of C. xerosis,[1]; solvent content 65%,+/−
same,"Inhibition of C. xerosis, zone diameter",[1]; solvent content 65%,0.8 cm
same,Inhibition of C. xerosis,[1]; solvent content 70%,+/−
same,"Inhibition of C. xerosis, zone diameter",[1]; solvent content 70%,0.8 cm
same,Inhibition of C. xerosis,[1]; solvent content 75%,+/−
same,"Inhibition of C. xerosis, zone diameter",[1]; solvent content 75%,0.8 cm
same,Inhibition of C. xerosis,[1]; solvent content 80%,+/−
same,"Inhibition of C. xerosis, zone diameter",[1]; solvent content 80%,0.8 cm
same,Inhibition of C. xerosis,[1]; solvent content 90%,+/−
same,"Inhibition of C. xerosis, zone diameter",[1]; solvent content 90%,0.8 cm
same,Inhibition of C. xerosis,[1]; solvent content 100%,+/−
same,"Inhibition of C. xerosis, zone diameter",[1]; solvent content 100%,0.8 cm
same,Inhibition of S. epidermidis,[2]; solvent content 5%,−
same,Inhibition of S. epidermidis,[2]; solvent content 10%,−
same,Inhibition of S. epidermidis,[2]; solvent content 15%,−
same,Inhibition of S. epidermidis,[2]; solvent content 20%,−
same,Inhibition of S. epidermidis,[2]; solvent content 25%,−
same,Inhibition of S. epidermidis,[2]; solvent content 30%,−
same,Inhibition of S. epidermidis,[2]; solvent content 35%,−
same,Inhibition of S. epidermidis,[2]; solvent content 40%,−
same,Inhibition of S. epidermidis,[2]; solvent content 45%,−
same,Inhibition of S. epidermidis,[2]; solvent content 50%,−
same,Inhibition of S. epidermidis,[2]; solvent content 55%,−
same,Inhibition of S. epidermidis,[2]; solvent content 60%,−
same,Inhibition of S. epidermidis,[2]; solvent content 65%,−
same,Inhibition of S. epidermidis,[2]; solvent content 70%,−
same,Inhibition of S. epidermidis,[2]; solvent content 75%,−
same,Inhibition of S. epidermidis,[2]; solvent content 80%,−
same,Inhibition of S. epidermidis,[2]; solvent content 90%,−
same,Inhibition of S. epidermidis,[2]; solvent content 100%,−
same,inhibition of S. epidermidis (in words),[2],no inhibition
"O=C1C=CC(=O)c2ccccc21 [1,4-naphthoquinone]",Inhibition of C. xerosis,[1]; 0.01% in ethanol 20%,−
same,Inhibition of C. xerosis,[1]; 0.02% in ethanol 20%,−
same,Inhibition of C. xerosis,[1]; 0.2% in ethanol 20%,+
same,"Inhibition of C. xerosis, zone diameter",[1]; 0.2% in ethanol 20%,0.8 cm
same,growth inhibition of C. xerosis (in words),[1]; comment on Table I,inhibits the growth
same,Inhibition of S. epidermidis,[2]; 0.01% in ethanol 20%,−
same,Inhibition of S. epidermidis,[2]; 0.02% in ethanol 20%,−
same,Inhibition of S. epidermidis,[2]; 0.2% in ethanol 20%,+
same,"Inhibition of S. epidermidis, zone diameter",[2]; 0.2% in ethanol 20%,1.4 cm
same,growth inhibition of S. epidermidis (in words),[2]; comment on Table I,inhibits the growth
